Results: PubChem BioAssay (NCI)
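Assay format: 96-well plates, 48-hour exposure. At the GI50, growth is halved. The concentration for full growth arrest is given as TGI.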

What was measured:
Experiment in all cases: NCI anticancer screen, dose series, 48 h
MOLT-4 leukemia = test system: MOLT-4 leukemia
U251 CNS = test system: U251 CNS
SK-MEL-5 melanoma = test system: SK-MEL-5 melanoma
MALME-3M melanoma = test system: MALME-3M melanoma
LOX IMVI melanoma = test system: LOX IMVI melanoma
K-562 leukemia = test system: K-562 leukemia
MCF7 breast = test system: MCF7 breast
NCI-H226 lung = test system: NCI-H226 lung
MDA-MB-435 = test system: MDA-MB-435
OVCAR-4 ovarian = test system: OVCAR-4 ovarian
786-0 renal = test system: 786-0 renal
SNB-19 CNS = test system: SNB-19 CNS
SN12C renal = test system: SN12C renal
IGROV1 ovarian = test system: IGROV1 ovarian
A549 NSCLC = test system: A549 NSCLC
UACC-257 melanoma = test system: UACC-257 melanoma
HOP-62 NSCLC = test system: HOP-62 NSCLC
HCT-116 colon = test system: HCT-116 colon
CAKI-1 renal = test system: CAKI-1 renal
SK-MEL-28 melanoma = test system: SK-MEL-28 melanoma
SK-MEL-2 melanoma = test system: SK-MEL-2 melanoma
T-47D breast = test system: T-47D breast
UO-31 renal = test system: UO-31 renal
DU-145 prostate = test system: DU-145 prostate
SK-OV-3 ovarian = test system: SK-OV-3 ovarian
SF-295 CNS = test system: SF-295 CNS
NCI/ADR-RES ovarian = test system: NCI/ADR-RES ovarian
SNB-75 CNS = test system: SNB-75 CNS
SR leukemia = test system: SR leukemia

Cc1cc(Oc2ccccc2)ccc1Nc1ncnc2ccc(-c3cnc(Cl)c(NS(C)(=O)=O)c3)cc12
GI50 (MOLT-4 leukemia): 1.51 µM
TGI (MOLT-4 leukemia): 5.15 µM
GI50 (U251 CNS): 2.19 µM
TGI (U251 CNS): 10.5 µM
GI50 (SK-MEL-5 melanoma): 1.55 µM
TGI (SK-MEL-5 melanoma): 3 µM
GI50 (MALME-3M melanoma): 0.612 µM
TGI (MALME-3M melanoma): 3.79 µM
GI50 (LOX IMVI melanoma): 0.964 µM
TGI (LOX IMVI melanoma): 4 µM
GI50 (K-562 leukemia): 3.58 µM
TGI (K-562 leukemia): > 100 µM
GI50 (MCF7 breast): 0.282 µM
TGI (MCF7 breast): 13.1 µM
GI50 (NCI-H226 lung): 3.66 µM
TGI (NCI-H226 lung): 20.1 µM
GI50 (MDA-MB-435): 1.26 µM
TGI (MDA-MB-435): 3.48 µM
GI50 (OVCAR-4 ovarian): 2.15 µM
TGI (OVCAR-4 ovarian): 10.5 µM
GI50 (786-0 renal): 2.23 µM
TGI (786-0 renal): 14 µM
GI50 (SNB-19 CNS): 2.2 µM
TGI (SNB-19 CNS): 7.07 µM
GI50 (SN12C renal): 2.16 µM
TGI (SN12C renal): 12.5 µM
GI50 (IGROV1 ovarian): 0.227 µM
TGI (IGROV1 ovarian): 1.13 µM
GI50 (A549 NSCLC): 2.03 µM
TGI (A549 NSCLC): 6.16 µM
GI50 (UACC-257 melanoma): 1.95 µM
TGI (UACC-257 melanoma): 8.26 µM
GI50 (HOP-62 NSCLC): 2.84 µM
TGI (HOP-62 NSCLC): 18.3 µM
GI50 (HCT-116 colon): 2.51 µM
TGI (HCT-116 colon): 13.3 µM
GI50 (CAKI-1 renal): 1.04 µM
TGI (CAKI-1 renal): 5.98 µM
GI50 (SK-MEL-28 melanoma): 0.745 µM
TGI (SK-MEL-28 melanoma): 5.53 µM
GI50 (SK-MEL-2 melanoma): 1.39 µM
TGI (SK-MEL-2 melanoma): 3.77 µM
GI50 (T-47D breast): 0.185 µM
TGI (T-47D breast): 1.37 µM
GI50 (UO-31 renal): 0.604 µM
TGI (UO-31 renal): 3.65 µM
GI50 (DU-145 prostate): 2.04 µM
TGI (DU-145 prostate): 12.1 µM
GI50 (SK-OV-3 ovarian): 0.505 µM
TGI (SK-OV-3 ovarian): 4.2 µM
GI50 (SF-295 CNS): 1.09 µM
TGI (SF-295 CNS): 5.43 µM
GI50 (NCI/ADR-RES ovarian): 3.12 µM
TGI (NCI/ADR-RES ovarian): > 100 µM
GI50 (SNB-75 CNS): 0.277 µM
TGI (SNB-75 CNS): 3.41 µM
GI50 (SR leukemia): 1.77 µM
TGI (SR leukemia): 5.56 µM
